Results on one molecule are retold here after patent publication US11261196B2, “Salt serving as AKT inhibitor and crystal thereof” (HARBIN ZHENBAO PHARMACEUTICAL CO., LTD., priority 2017, dated 2022).

pIC50: −log10 of the molar value. Several values for one entry are separate records, joined by “and”; a condition that tells them apart may be missing. Identical values can stand only once. Like-named read-outs stand apart in the source and are kept apart here.

Series [1] in a line: Hygroscopicity test of the crystal form. The class given is physicochemical. The settings on record: 25° C., 24 hours. The method, then:
Three dry glass weighing bottles (with an outer diameter of 50 mm and a height of 30 mm) with a stopper was placed in a desiccator with saturated ammonium chloride solution at the lower part, the glass weighing bottles were left open, the desiccator was covered with lid, and then the desiccator was placed in a 25° C. incubator and left overnight.
The weighing bottle was weighed precisely after placed overnight, the weight was respectively m1 1, m1 2, m1 3
An appropriate amount of the crystal form of the compound of formula (I) was laid flat in the weighing bottles which was already weighed (with the sample thickness of about 1 mm), and was weighed precisely, the weight was respectively m2 1, m2 2, m2 3.
The weighing bottle was left open and was placed together with the stopper in a desiccator with saturated ammonium chloride solution at the lower part, the weighing bottle was left open, the desiccator was covered with lid, and then the desiccator was placed in a 25° C. incubator for 24 hours.
The weighing bottle was covered with its stopper after placed for 24 hours, and then it was weighed precisely, the weight was respectively m3 1, m3 2, m3 3.
The hygroscopic weight gain was calculated, the calculation formula is as follows: Weight gain percentage=100%×(m3−m2)/(m2−m1)

A short description of series [2]: Solubility test of the crystal form in different solvents. The settings on record: 25±2° C.; for solubility at 30 min: 25 °C, thermodynamic from solid, read-out: Solubility classification. The class given is physicochemical. The method, then:
10 mg of the crystal form of the compound of formula (I) was weighed accurately and placed in a glass bottle, 1 mL solvent was added thereto, the solution was shaken vigorously for 30 seconds every 5 minutes under 25±2° C., the dissolution phenomenon within 30 minutes was observed. The corresponding data was recorded. 1 mg of the insoluble sample in step 2.1 was weighed accurately and placed in a glass bottle, a suitable solvent was added thereto, the solution was shaken vigorously for 30 seconds every 5 minutes under 25±2° C., the dissolution phenomenon within 30 minutes was observed. The corresponding data was recorded. [table]

For series [3], the target named is T1, AKT2 (Homo sapiens, UniProt P31751).
T1 construct: purchased life technology
T1 sequence (P31751 whole entry): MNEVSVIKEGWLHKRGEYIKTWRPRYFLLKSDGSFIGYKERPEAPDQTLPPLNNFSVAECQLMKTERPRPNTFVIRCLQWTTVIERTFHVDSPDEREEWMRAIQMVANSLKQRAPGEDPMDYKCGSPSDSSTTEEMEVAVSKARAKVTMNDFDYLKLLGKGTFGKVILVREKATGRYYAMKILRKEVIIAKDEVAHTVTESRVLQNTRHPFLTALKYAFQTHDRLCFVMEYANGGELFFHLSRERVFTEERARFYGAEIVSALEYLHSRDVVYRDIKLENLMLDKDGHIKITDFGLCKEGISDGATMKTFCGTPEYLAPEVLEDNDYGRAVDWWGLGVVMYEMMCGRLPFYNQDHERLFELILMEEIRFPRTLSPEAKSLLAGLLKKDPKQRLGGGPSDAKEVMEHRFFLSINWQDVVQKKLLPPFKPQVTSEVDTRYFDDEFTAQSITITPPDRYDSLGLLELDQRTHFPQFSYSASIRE
As to the kind of experiment: AKT enzyme activity test (LANCE TR-FRET), AKT2. The class given is biochemical. An excerpt: AKT, also known as protein kinase B (PKB), is a serine/threonine specific protein kinase, mainly including AKT1, AKT2 and AKT3. The AKT signaling pathway plays an important role in various cellular processes such as glucose metabolism, apoptosis, cell proliferation transcription and cell migration. This study intends to analyze the inhibitory effect of the crystal form of the compound of formula (I) on the kinase activity of AKT family members.
In this experiment, the homogeneous time-resolved fluorescence […] energy transfer (LANCE TR-FRET®) method was used. The enzymes, biotinylated polypeptide substrates and the compound to be tested were mixed in the detection plate, and ATP was added to initiate the reaction and the mixture was incubated. After the reaction, EDTA was added to terminate the reaction, and Eu-labeled antibody was added at the same time to carry out the reaction and the reaction was detected. The detection plate was analyzed using Envision from PE Company, and the analysis mode was TR-FRET, the data were expressed by fluorescence signals at 665 nm and 615 nm, respectively.
Compound preparation: the test compound and the reference compound were diluted with 100% DMSO, the initial concentrations of the compounds were 10 μM, and the compounds were 3-fold gradient diluted into 10 concentrations. […]
On the technique in general: In TR-FRET formats the signal depends on donor and acceptor labels being close together.

Series [4] has as its system prostate cancer cell LNCaP overexpressing AKT. As to the kind of experiment: Cytoactive test, cell proliferation (CellTiter-Glo). The class given is cell-based. An excerpt:
This experiment intends to study the inhibitory effect of the compound of formula (I) on the prostate cancer cell LNCaP overexpressing AKT.
The content of ATP directly reflects the number and state of cells, and the number of living cells can be detected by quantitatively measuring ATP. The live cell detection kit contains luciferase and its substrate, with the participation of ATP, luciferase can catalyze the substrate and emit a stable optical signal, the amount of ATP in the cell can be determined by detecting the strength of the signal. Wherein the light signal is proportional to the amount of ATP in the cell, and ATP is positively correlated to the number of living cells, so that the proliferation of the cell can be detected. The detection plate was analyzed by using Envision from PE Company.
LNCaP cells were seeded in a 384-well plate, each well contained 1000 cells.
The cell plate was placed in a carbon dioxide incubator overnight.
The compound was 3-fold diluted with Bravo into 10 compound concentrations, and a double duplicate well experiment was set up.
The compound was transferred to the cell plate at an initial concentration of 10 μM. […]
Promega CellTiter-Glo reagent was added to the cell plate, and incubated at room temperature for 10 minutes to stabilize the luminescence signal, which was read by PerkinElmer Envision multi-label analyzer.
(Cellular ATP, detected with luciferase, serves as a proxy for viable cell number.)

For `Cc1cnn2c1-c1cc(C(=O)N[C@H](CN)Cc3cccc(F)c3)sc1CCC2.O=C(O)/C=C\C(=O)O`, the Hygroscopicity scale result in series [1] is on record as “no or almost no hygroscopicity”. Moreover, the “Weight gain percentage, Average” value in series [1] (average of 3 samples, saturated ammonium chloride) turned out to be 0.07%. In addition, in series [1] (single samples 1-3, saturated ammonium chloride), the Weight gain percentage is 0.05% and 0.12% and 0.04%. Moreover, the Solubility classification entry is “barely soluble or insoluble” in series [2] (0.1N HCl); “barely soluble or insoluble” in series [2] (0.1N NaOH); “barely soluble or insoluble” in series [2] (Acetonitrile); “quite soluble” in series [2] (Dimethyl sulfoxide); “slightly soluble” in series [2] (Methanol); “quite soluble” in series [2] (N-Methylpyrrolidone). Besides, in series [2] (Water), the Solubility classification result is on record as “barely soluble or insoluble”. Also, the solubility at 30 min is less than 0.1 mg/mL in series [2] (aqueous buffer, 0.1N NaOH); less than 0.1 mg/mL in series [2] (organic solvent or mixture, Acetonitrile); 100 to 1000 mg/mL in series [2] (organic solvent or mixture, Dimethyl sulfoxide); 1 to 10 mg/mL in series [2] (organic solvent or mixture, Methanol); 100 to 1000 mg/mL in series [2] (organic solvent or mixture, N-Methylpyrrolidone); 0.1 to 1 mg/mL in series [2] (simulated gastric fluid, 0.1N HCl). Also, the solubility at 30 min in series [2] (Water) is less than 0.1 mg/mL. Moreover, in series [3], the “inhibition effect against the activity of AKT2 kinase” value is “strong inhibition effect”. The pIC50 was 7.30 in series [3] (Akt2 2 nM, ATP 360 μM, read-out: IC50 of inhibition on kinase activity, AKT2) and 7.17 in series [4] (Homo sapiens, 72 h, 3 days, read-out: IC50 of inhibition on cell proliferation). Further, the “inhibitory effect on the growth of LNCaP cells” value in series [4] is listed as “significant inhibitory effect”.

Usually solubility stands for how much of the substance goes into solution per volume.
